Results: US9113629B2, “4-amino-6-(4-substituted-phenyl)-picolinates and 6-amino-2-(4-substituted-phenyl)-pyrimidine-4-carboxylates and their use as herbicides” (DOW AGROSCIENCES LLC, priority 2013, dated 2015)
Read-outs that look alike come from different tables or passages of the source.

What was measured:
[1] = test system: Key Broadleaf Weed and Crop Species; assay: Post-emergent Test II herbicidal activity (Table 5); assay type: in vivo; conditions: post-emergence, 336 h, 14 days after application; for pest or weed control at 70 g/ha: application rate 70 g ai/ha; for pest or weed control at 140 g/ha: application rate 140 g ai/ha
Summary of the method: (§1)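 Compounds, dissolved in 97:3 acetone/DMSO and diluted into an aqueous carrier containing crop oil concentrate and Triton X-155, are applied over the top of young plants at 187 L/ha. Injury is scored visually at 14 d, 0% meaning no effect and 100% complete kill.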

[2] = test system: Key Grass and Sedge Weeds as well as Grass Crops; assay: Post-emergent Test II herbicidal activity (Table 6); assay type: in vivo; conditions: post-emergence, 336 h; for pest or weed control at 70 g/ha: 70 g ai/ha; for pest or weed control at 140 g/ha: 140 g ai/ha
Summary of the method: as §1

[3] = ABUTH: velvetleaf (Abutilon theophrasti), read-out: Visual Growth Reduction (%) 14 Days After Application, ABUTH
[4] = AMARE: redroot pigweed (Amaranthus retroflexus), read-out: Visual Growth Reduction (%) 14 Days After Application, AMARE
[5] = BRSNN: oilseed-rape, canola (Brassica napus), read-out: Visual Growth Reduction (%) 14 Days After Application, BRSNN
[6] = CHEAL: lambsquarters (Chenopodium album), read-out: Visual Growth Reduction (%) 14 Days After Application, CHEAL
[7] = EPHHL: wild poinsettia (Euphorbia heterophylla), read-out: Visual Growth Reduction (%) 14 Days After Application, EPHHL
[8] = HELAN: sunflower (Helianthus annuus), read-out: Visual Growth Reduction (%) 14 Days After Application, HELAN
[9] = VIOTR: wild pansy (Viola tricolor), read-out: Visual Growth Reduction (%) 14 Days After Application, VIOTR
[10] = CYPES: yellow nutsedge (Cyperus esculentus), read-out: Visual Growth Reduction (%) 14 Days After Application, CYPES
[11] = DIGSA: crabgrass (Digitaria sanguinalis), read-out: Visual Growth Reduction (%) 14 Days After Application, DIGSA
[12] = ECHCG: barnyardgrass (Echinochloa crus-galli), read-out: Visual Growth Reduction (%) 14 Days After Application, ECHCG
[13] = ORYSA: rice (Oryza sativa), crop, read-out: Visual Growth Reduction (%) 14 Days After Application, ORYSA
[14] = SETFA: giant foxtail (Setaria faberi), read-out: Visual Growth Reduction (%) 14 Days After Application, SETFA
[15] = SORVU: grain sorghum (Sorghum vulgare), read-out: Visual Growth Reduction (%) 14 Days After Application, SORVU
[16] = TRZSS (wheat, Triticum aestivum), crop, read-out: Visual Growth Reduction (%) 14 Days After Application, TRZSS
[17] = ZEAMX: maize, corn (Zea mays), crop, read-out: Visual Growth Reduction (%) 14 Days After Application, ZEAMX

N#Cc1ccc(-c2nc(C(=O)O)c(Cl)c(N)c2F)cc1 [Compound 39]
pest or weed control at 70 g/ha [1, 3]: 30 to 44%
pest or weed control at 140 g/ha [1, 3]: 60 to 74%
pest or weed control at 70 g/ha [1, 4]: 0 to 29%
pest or weed control at 140 g/ha [1, 4]: 0 to 29%
pest or weed control at 70 g/ha [1, 5]: 0 to 29%
pest or weed control at 140 g/ha [1, 5]: 30 to 44%
pest or weed control at 70 g/ha [1, 6]: 85 to 94%
pest or weed control at 140 g/ha [1, 6]: 95 to 100%
pest or weed control at 70 g/ha [1, 7]: 85 to 94%
pest or weed control at 140 g/ha [1, 7]: 95 to 100%
pest or weed control at 70 g/ha [1, 8]: 95 to 100%
pest or weed control at 140 g/ha [1, 8]: 95 to 100%
pest or weed control at 70 g/ha [1, 9]: 30 to 44%
pest or weed control at 140 g/ha [1, 9]: 30 to 44%
pest or weed control at 70 g/ha [2, 10]: 60 to 74%
pest or weed control at 140 g/ha [2, 10]: 75 to 84%
pest or weed control at 70 g/ha [2, 11]: 30 to 44%
pest or weed control at 140 g/ha [2, 11]: 45 to 59%
pest or weed control at 70 g/ha [2, 12]: 85 to 94%
pest or weed control at 140 g/ha [2, 12]: 85 to 94%
pest or weed control at 70 g/ha [2, 13]: 0 to 29%
pest or weed control at 140 g/ha [2, 13]: 0 to 29%
pest or weed control at 70 g/ha [2, 14]: 0 to 29%
pest or weed control at 140 g/ha [2, 14]: 30 to 44%
pest or weed control at 70 g/ha [2, 15]: 30 to 44%
pest or weed control at 140 g/ha [2, 15]: 60 to 74%
pest or weed control at 70 g/ha [2, 16]: 30 to 44%
pest or weed control at 140 g/ha [2, 16]: 45 to 59%
pest or weed control at 70 g/ha [2, 17]: 60 to 74%
pest or weed control at 140 g/ha [2, 17]: 60 to 74%
